Laboratory results as given in patent US20260373497A1, “MOLECULAR MACHINES STIMULATE INTERCELLULAR CALCIUM WAVES AND CAUSE MUSCLE CONTRACTION” (William Marsh Rice University, priority 2022, published 2026).

Tests used:
HEK293 cells [1] = test: Pharmacological blocking of MM 1-induced calcium responses; assay type: cell-based; conditions: role: inhibitor, MM 1 + light
Protocol: FIGS. 14A-14J—Mechanistic study of MM-induced ICW. (a) Schematic of possible mechanisms by which calcium can enter the cytoplasm. Prepared with Biorender.com. (b) Confocal microscope images of HEK293 cells treated with MM 1, MitoTracker Green, ER Tracker Red, and CellMask Deep Red. Scale bars are both 20 μm and apply to the images in the same row. (c-h) Calcium waves elicited by MM 1-treated cells (c) in calcium-free PBS, (d) in RR (1 μM), (e) in Gd^3+ (50 μM), (f) after treatment of cells with Th (1 μM), (g) in Ry (100 μM), (h) in XeC (25 μM), (i) in U-73 (10 μM), (j) after pre-treatment of cells with Cyto D (2 μM). The solid line represents the calcium profiles averaged from six independent cells. The shaded region represents the standard error of the mean (n=6). Stimuli were presented after 30 s of imaging in each case, and the time of stimulus presentation is indicated by the vertical cyan line. […] All stimuli were delivered with a pulse width of 250 ms to a circular area of diameter 5 μm at a power ranging from 3.2×10^2 W cm^−2 to 5.1×10^2 W cm^−2. For all plots, the cyan line indicates the time of stimulus presentation. Controls and experimental groups were imaged and stimulated on the same day using the same conditions and with the same batch of cells. Error bars in the bar graphs represent the standard deviation of the mean of n=3 experiments (at least 6 stimulated cells per experiment). Statistical analyses were performed using a one-tailed Welch's t-test. * P-value<0.05, ** P-value<0.01, *** P-value<0.001, **** P-value<0.0001.
Imaging was conducted in imaging extracellular buffer (iECB; 119 mM NaCl, 5 mM KCl, 10 mM HEPES, 2 mM CaCl2, 1 mM MgCl2 (pH 7.2); 320 mOsm). Imaging in calcium-free medium was conducted in phosphate-buffered saline. Cells were prepared for imaging by seeding a 35 mm Ibidi imaging dish with ~50,000 cells in 1 mL of DMEM, and grown at 37 °C, 5% CO2 for 2 days. Prior to imaging, cells were incubated with dyes and/or molecules resuspended in complete growth medium at the appropriate concentration (MM 1 (8 μM), MM 2 (8 μM), MM 3 (24 μM), MM 4 (8 μM), Fluo-4 (2 μM)). MM and Fluo-4 were loaded into cells for 45 min. Cells treated with thapsigargin were exposed for 30 min after MM and Fluo-4 loading. Cells treated with organelle-targeting dyes were exposed for 5 min after MM loading. Ruthenium red and Gd^3+ were included in the imaging medium during stimulation and were associated with cells for 10 min prior to imaging. At the end of incubation, this medium was replaced with the iECB. Unless otherwise specified, all experiments were replicated in triplicate.
Pharmacological Experiments: In pharmacological blocking experiments, cells were loaded with MM and Fluo-4 as previously described. Typical imaging experiments in previously described extracellular buffer were then conducted as a positive control. Then, the imaging buffer was replaced, and the cells were treated as required for each experiment. After a brief recovery period, the cells were imaged again, and six different cells were stimulated. Experiments in calcium-free imaging buffer used phosphate buffered saline. Thapsigargin (Th: 1 μM) and Cytochalasin D (Cyto D; 2 μM) were incubated with cells in complete growth medium for 1 h (Th) or 2 h (Cyto D) before imaging. Ruthenium red (RR; 1 μM), gadolinium (Gd; 50 μM), ryanodine (Ry; 100 μM), xestospongin C (XeC; […]), and U-73122 (U-73; 10 μM) were administered directly into the imaging medium. Cells were incubated in the medium for ~5 min prior to imaging. Traces presented are representative results across at least six cells from single experiments, while bar graphs represent the average results across at least three distinct experiments.

C2C12 myoblasts = test: Pathway inhibitors on MM-induced calcium release in C2C12 myoblasts; assay type: cell-based, mouse; conditions: role: inhibitor; for Effect on MM-induced calcium signaling: SQ22536 100 μM, cAMPS-Rp 200 μM
Protocol: FIGS. 38A-38F—Calcium release in C2C12 myoblasts occurs by means of the IP3 pathway. Average normalized fluorescence intensity traces of C2C12 myoblasts before and after treatment with a) 10 μM U-73122 (PLC inhibitor), b) 100 μM gallein (GPCRβγ inhibitor), c) 1 μM FR900359 (GPCRα inhibitor), d) 200 μM cAMPS-Rp (cAMP antagonist, inhibits PKA activation), e) 100 μM SQ22536 (adenylyl cyclase inhibitor), and f) 1 μM nintedanib (RTK inhibitor).
It was determined that MMs activate the IP3 pathway by inhibiting key proteins along the pathway. If inhibition of a specific protein decreases the magnitude of the observed calcium responses, then it can be assumed that the targeted protein played an important role in propagating the calcium signaling pathway that was initiated by MMs. […] When both gallein and FR900359 are used simultaneously, a similar decrease of ~50% also occurs (FIG. 33). […] This may occur either through direct MM activation or indirectly through MM activation of a different signaling pathway. It is known that RTKs can also activate PLC (Bill and Vines, 2020).
The effect of cAMP pathway inhibition on the elicited calcium signaling responses was measured by using 100 μM SQ22536 to inhibit adenylyl cyclase (FIG. 38D) and 200 μM cAMPS-Rp (FIG. 38E), a cAMP antagonist that inhibits protein kinase A (PKA) activation. […] At this moment it cannot be concluded whether this effect is because MMs also activate the GPCRs associated with the cAMP pathway, or if inhibition of adenylyl cyclase and PKA naturally affects normal calcium signaling pathways, regardless of MM stimulation.

HEK293 cells [2] = test: ROS scavengers on MM 1-induced calcium waves; assay type: cell-based; conditions: melatonin 100 μM, thiourea 50 mM, L-ascorbic acid 2 mM; 1 h; MM 1, 4.5×10^2 W cm^−2
Protocol: Normalized fluorescence intensity traces of HEK293 cells treated with MM 1 and Fluo-4 and administered (a) melatonin (Mel; 100 μM), (b) thiourea (ThioU; 50 mM), and (c) L-ascorbic acid (Vit C; 2 mM). The shaded region indicates the standard error of n=6 stimulation attempts. Dark traces indicate positive controls collected prior to treatment. Stimulation was administered at 4.5×10^2 W cm^−2. Cells were incubated with chosen ROS scavengers for 1 h prior to stimulation.

C2C12 myotubes = test: C2C12 myotube contraction (image subtraction); assay type: cell-based, mouse
Protocol: FIG. 35—Flow chart for the image subtraction process. First, the background is subtracted from the traces to account for drift during the course of the experiment (top row). After this, the traces are zeroed at the point of stimulation, and the area is calculated from the point of stimulation until the end of the experiment to yield the contraction magnitude. (bottom row).
FIGS. 40A-40D—MMs induce contraction in C2C12 myotubes, a) Confocal microscopy images of Fluo-4 and b) image subtraction of brightfield images to highlight calcium release and contractile motion in three stimulated myotubes (indicated by the red arrows) immediately before stimulation (t=0) for 1.5 s with 400-nm light, as well as 10 s and 120 s after stimulation. Scale bar=30 μm. c) Magnitude of contraction of MM 1 compared to DMSO, MM 2, MM 3, and cells treated with 10 μM U-73122. d) Mechanism of skeletal muscle cell contraction.
This method yielded images where the pixel intensity corresponds to movement over the course of the experiment (FIG. 40C), allowing us to easily visualize and quantify contraction.

[3] = UV-Vis absorbance of motors in DMSO; assay type: physicochemical
From the text: The UV-Vis spectrum of each motor was also acquired in DMSO (FIG. 37D) to ensure that the difference in absorbance at 400 nm was not the cause of larger or smaller responses.

[4] = cited from earlier work

## C/C=C(/C)C(=O)O[C@H]1C(C)=C2[C@H]([C@@H]1OC(=O)CCCCCCC)[C@@](C)(OC(C)=O)C[C@H](OC(=O)CCC)[C@@]1(O)[C@H]2OC(=O)[C@@]1(C)O [thapsigargin]
HEK293 cells [1]; thapsigargin 1 μM, P=0.00257
  Effect on MM-induced calcium responses: did not show any measurable calcium flux upon light stimulation

## C1CCC[C@H]2CCCN3CC[C@@H](CCCCCC[C@@H]4CCCN5CC[C@@H](CC1)O[C@@H]45)O[C@@H]23 [xestospongin C]
HEK293 cells [1]; XeC 25 μM (20 μM in Table 2), P=0.0167
  Effect on MM-induced calcium responses: significantly diminished the strength of cellular responses to MM

## COC(=O)c1ccc2c(c1)NC(=O)/C2=C(\Nc1ccc(N(C)C(=O)CN2CCN(C)CC2)cc1)c1ccccc1 [nintedanib]
C2C12 myoblasts; nintedanib 1 μM (RTK inhibition)
  Effect on MM-induced calcium responses: no decrease in magnitude of the elicited calcium responses

## [Gd+3] [Gd^3+, gadolinium]
HEK293 cells [1]; Gd^3+ 50 μM
  Effect on MM-induced calcium responses: did not affect the observed responses

## Nc1ncnc2c1ncn2[C@@H]1O[C@@H]2CO[P@@](O)(=S)O[C@H]2[C@H]1O [cAMPS-Rp]
C2C12 myoblasts
  Effect on MM-induced calcium signaling: small reduction in calcium signaling

## NC(N)=S [thiourea]
HEK293 cells [2]
  Effect of ROS scavenger on MM induced ICW: does not affect MM induced ICW

## N.N.N.N.N.N.N.N.N.N.N.N.N.N.[Cl-].[Cl-].[Cl-].[Cl-].[Cl-].[Cl-].[O-2].[O-2].[Ru+3].[Ru+3].[Ru+4] [ruthenium red]
HEK293 cells [1]; ruthenium red 1 μM (10 μM in Table 2)
  Effect on MM-induced calcium responses: did not decrease the magnitude of MM-induced calcium responses

## Nc1ncnc2c1ncn2C1CCCO1 (stereo not shown) [SQ22536]
C2C12 myoblasts
  Effect on MM-induced calcium signaling: small reduction in calcium signaling

## O=C1OC2(c3ccccc31)c1ccc(O)c(O)c1Oc1c2ccc(O)c1O [gallein]
C2C12 myoblasts; Mus musculus, C2C12, gallein 100 μM, read-out: Reduction in observed calcium response
  inhibition at 100 µM: ~50%

## COc1ccc2[nH]cc(CCNC(C)=O)c2c1 [melatonin]
HEK293 cells [2]
  Effect of ROS scavenger on MM induced ICW: does not affect MM induced ICW

## C=C1[C@@H](C)[C@H]2[C@H](Cc3ccccc3)NC(=O)[C@]23[C@H](OC(C)=O)/C=C/[C@@](C)(O)C(=O)[C@@H](C)C/C=C/[C@H]3[C@@H]1O [cytochalasin D]
HEK293 cells [1]; cytochalasin D 2 μM, P=0.01762
  Effect on MM-induced calcium responses: inhibited

## FR900359
C2C12 myoblasts; FR900359 1 μM
  Reduction in observed calcium response: ~ 50%

## ryanodine
HEK293 cells [1]; ryanodine 100 μM
  Effect on MM-induced calcium response amplitude: no effect on response amplitude

## O=C1O[C@H]([C@@H](O)CO)C(O)=C1O [L-ascorbic acid]
HEK293 cells [2]
  Effect of ROS scavenger on MM induced ICW: does not affect MM induced ICW

## CN(C)CCNc1ccc2c(c1)Sc1ccccc1C2=C1CCc2ccc3ccccc3c21 [MM 2 (fast, bidirectional)]
C2C12 myotubes; 400-nm light 1.5 s, image subtraction
  Myotube contraction: Strong cellular contraction did not occur
[3]
  Absorbance at 400 nm: nearly identical absorbances at 400 nm
[4]
  Rotation rate: ~ 3 MHz

## COc1ccc2c(c1)CC[C@@H]1[C@@H]2CC[C@]2(C)[C@@H](NCCCCCCN3C(=O)C=CC3=O)CC[C@@H]12 [U-73122, reference compound]
C2C12 myoblasts; U-73122 10 μM
  Effect on MM-induced calcium responses: completely abolished
C2C12 myotubes; role: inhibitor, U73 (10 μM) with MM 1 + light
  Myotube contraction magnitude with PLC inhibitor: contraction magnitude equal to that of the DMSO control
